{"source": "patent US4436732A", "about": "“Medicated compound for treating diseases infected by virus of the herpes group” (priority 1981, dated 1984)", "key": {"[1]": {"experiment": "antidiabetic effect: glucose in blood under alimentary carbohydrate load", "format": "in vivo, rabbits", "details": "per os", "experimental": "To reveal the antidiabetic effect of the active principle, its effect on the content of glucose in rabbit's blood under the conditions of alimentary carbohydrate load has been studied. The active principle is administered in doses of 50 and 100 mg/kg once per os through a tube in a 1% starch paste. The experiment scheme is the following: the content of glucose in blood is determined in rabbit's blood on an empty stomach, and 40 minutes thereafter the content of glucose is again determined in blood. Afterwards, glucose is administered to the rabbits at the rate of 1.5 g/kg and the content of glucose in blood is determined 15, 30, 45, 60, 90 and 120 minutes after the administration thereof."}, "[2]": {"tested_on": "HV (virus of the herpes group)", "experiment": "antiviral properties in vitro in a culture of cells of fibroblasts of a chicken embryo (virus-suppressing effect, cytopathogenic effect)", "format": "cell-based", "details": "10 μg/ml; 100 TCD50 HV", "experimental": "The study of antiviral properties of the active principle has been carried out in in vitro experiments in a culture of cells of fibroblasts of a chicken embryo following a commonly employed procedure for primary screening of antiviral preparations. Cells are grown in flasks or test-tubes on the nutrient medium 199 with the addition of 5 to 10 vol.% of cattle serum. Then, for the contact of the virus with cells, into the flasks a virus-containing material is added in doses of 1, 10, 100 and 1,000 TCD50. […] Flasks or test-tubes are then subjected to thermosetting at the temperature of 37° C. The virus-suppressing effect is determined for 5 days by way of comparison of the presence of cytopathogenic effect in the control and test flasks and test-tubes. As the control use is made of: control of the single layer of cells, the control of the active principle without virus and the control of the virus without the active principle."}, "[3]": {"tested_on": "vessels of an isolated rabbit's ear", "experiment": "vasodilative effect on vessels of an isolated rabbit's ear", "description": "(§1) The cardiological effect of the active principle has been studied in experiments on an isolated cat's heart; the effect on electrocardiographic characteristics has been studied in experiments on rabbits; the vasodilative effect--on vessels of an isolated rabbit's ear; the spasmolytic effect--on acetylcholine and barium spasms of smooth muscles of an isolated section of a rat's small intestine."}, "[4]": {"experiment": "cardiological effect / electrocardiographic characteristics", "format": "in vivo, rabbits", "details": "for increase of amplitude of cardiac contractions: P=0.05", "description": "as §1\nThe studies have shown that upon the intravenous administration to rabbits of the active principle in the dose of 20 mg/kg it causes increased amplitude of cardiac contractions by 34% (P=0.05), in the dose of 50 mg/kg--by 41% (P=0.05); rarefaction of the rhythm of cardiac contractions in rabbits by 10-18% on the average and increase of the voltage of the peak P by 32%. […] A slight increase of the voltage of the peak P on the average by 20% is observed."}, "[5]": {"experiment": "effect on acute exudative and chronical proliferative phases of inflammation", "format": "in vivo, mice", "experimental": "The effect of the active principle on the acute exudative and chronical proliferative phases of inflammation in doses of 10 and 50 mg/kg has been studied upon per os administration to mice."}, "[6]": {"experiment": "cardiorhythmic effect on the aconitine model of arrhythmia", "format": "in vivo, rat", "details": "intravenous, 10 and 50 mg/kg", "experimental": "The cardiorhythmic effect of the active principle has been studied on the rat's aconitine model of arrhythmia upon its intravenous administration in the doses of 10 and 50 mg/kg."}, "[7]": {"experiment": "effect on the intensity of bile secretion, acute tests", "format": "in vivo, cats", "details": "20 and 50 mg/kg", "description": "In acute tests on cats the effect of the active principle on the intensity of bile secretion has been studied."}, "[8]": {"experiment": "effect on hemodynamics and breathing, acute experiment on narcotized cats", "format": "in vivo", "details": "50 mg/kg intra-stomach", "experimental": "The study of the effect of this compound on the characteristics of hemodynamics and breathing has been carried out in an acute experiment on 6 narcotized cats (urethane 1.0 g/kg, chloralose 60 mg/kg) upon the intra-stomach administration of the active principle in the dose of 50 mg/kg. In each cat simultaneously recorded were the breathing frequency cardiac contraction frequency, systemic arterial pressure, amplitude of the volume blood flow in the abdominal aorta, amplitude of the brain rheograms and femur muscles rheorgrams."}, "[9]": {"experiment": "acute toxicity and tolerance", "design": "species or system white mice, rats, guinea pigs and dogs", "details": "in vivo", "experimental": "The study of an acute toxicity and tolerance of the active principle and the medicated compound in the form of tablets has been carried out on white mice, rats, guinea pigs and dogs with different modes of administration.\nThe active principle and tablets of the are administered in the form of an aqueous suspension hypodermally, intraperitoneally and in stomach."}, "[10]": {"experiment": "anti-ulcerous effect on the model of caffeine-arsenic ulcer", "format": "in vivo, rats", "details": "per os for nine days, 20 mg/kg", "experimental": "The anti-ulcerous effect of the active principle has been studied on the model of caffeine-arsenic ulcer in rats. The substance is administered per os for nine days in the doses of 1, 10 and 20 mg/kg."}, "[11]": {"experiment": "effect on characteristics of blood coagulation", "format": "in vivo, rabbits", "details": "per os, 50 mg/kg, during 4 hours", "experimental": "The study of the effect of the active principle on certain characteristics of blood coagulation has been carried out on 5 rabbits. The compound is administered per os in the dose of 50 mg/kg as a suspension in a 2% starch paste. Blood has been examined prior to the administration and during 4 hours after a single-time administration of the suspension; determined are: blood plasma recalcification, thrombin time, thrombelastographic characteristics and thrombocyte concentration."}, "[12]": {"details": "intra-stomach, 50 and 150 mg/kg"}}}
{"smiles": "O=c1c2cc(O)c(O)cc2oc2cc(O)c([C@@H]3O[C@H](CO)[C@@H](O)[C@H](O)[C@H]3O)c(O)c12", "note": "[active principle, 2-C-β-D-glucopyranosyl-1,3,6,7-tetraoxyxanthone]", "values": [{"measurement": "effect on the glycemic curve", "setting": "[1]; 50 mg/kg", "value": "no effect"}, {"measurement": "increase of glucose tolerance", "setting": "[1]; 100 mg/kg, uncertainly increased", "value": 14, "unit": "%"}, {"measurement": "virus-suppressing effect", "setting": "[2]", "value": "high virus-suppressing effect"}, {"measurement": "vasodilative effect", "setting": "[3]", "value": "no vasodilative"}, {"measurement": "effect on duration of intervals of the cardiac cycle", "setting": "[4]; [12]", "value": "no substantial effect"}, {"measurement": "effect on the rhythm of cardiac contractions", "setting": "[4]; [12]", "value": "no substantial effect"}, {"measurement": "increase of the voltage of the peak P", "setting": "[4]; intra-stomach, 50 and 150 mg/kg, on the average", "value": 20, "unit": "%"}, {"measurement": "increase of the voltage of the peak P", "setting": "[4]; intravenous, rabbits", "value": 32, "unit": "%"}, {"measurement": "increase of amplitude of cardiac contractions", "setting": "[4]; intravenous, rabbits, 20 mg/kg", "value": 34, "unit": "%"}, {"measurement": "increase of amplitude of cardiac contractions", "setting": "[4]; intravenous, rabbits, 50 mg/kg", "value": 41, "unit": "%"}, {"measurement": "rarefaction of the rhythm of cardiac contractions", "setting": "[4]; intravenous, rabbits, on the average", "value": "10-18%"}, {"measurement": "cardiostimulant effect", "setting": "[4]; rabbit, in vivo", "value": "slight cardiostimulant effect"}, {"measurement": "exudative phase in chronical proliferative inflammation", "setting": "[5]; model of chronical proliferative inflammation", "value": "somewhat suppresses"}, {"measurement": "development of the exudative phase of inflammation", "setting": "[5]; per os, 50 mg/kg", "value": "suppresses the development of the exudative phase of inflammation"}, {"measurement": "antiphlogistic activity relative to formalin edema", "setting": "[5]; per os, 50 mg/kg, P below 0.005", "value": 12.7}, {"measurement": "antiphlogistic activity relative to dextran edema", "setting": "[5]; per os, 50 mg/kg, P below 0.05", "value": 16.5}, {"measurement": "lowering of penetration of skin vessels", "setting": "[5]; per os, 50 mg/kg, P below 0.05", "value": 15, "unit": "%"}, {"measurement": "antiphlogistic effect", "setting": "[5]; per os, 10 and 50 mg/kg", "value": "slight antiphlogistic effect"}, {"measurement": "formation of granulation-fibrous tissue", "setting": "[5]; proliferative stage of chronical inflammation", "value": "retards the formation of a granulation-fibrous tissue"}, {"measurement": "cardiorhythmic effect", "setting": "[6]", "value": "no cardiorhythmic effect"}, {"measurement": "bile secretion intensity", "setting": "[7]", "value": "does not increase"}, {"measurement": "other characteristics of hemodynamics", "setting": "[8]; narcotized cats", "value": "not substantially changed"}, {"measurement": "systemic arterial pressure", "setting": "[8]; narcotized cats", "value": "slightly lowers"}, {"measurement": "reduction of arterial pressure", "setting": "[8]; 60 and 90 minutes", "value": "do not differ from the control"}, {"measurement": "reduction of breathing frequency vs control", "setting": "[8]; 60 and 90 minutes", "value": "do not differ from the control"}, {"measurement": "reduction of breathing frequency", "setting": "[8]; 10 minutes, P below 0.05", "value": 21, "unit": "%"}, {"measurement": "reduction of breathing frequency", "setting": "[8]; 30 minutes, P below 0.01", "value": 32, "unit": "%"}, {"measurement": "toxicity (overall)", "setting": "[9]", "value": "low-toxic"}, {"measurement": "LD50", "setting": "[9]; ip, intraperitoneal", "value": "3000 to 4000", "unit": "mg/kg"}, {"measurement": "LD50", "setting": "[9]; po, in-stomach", "value": 10000, "unit": "mg/kg"}, {"measurement": "LD50", "setting": "[9]; sc, hypodermal", "value": "> 5000", "unit": "mg/kg"}, {"measurement": "anti-ulcerous effect", "setting": "[10]", "value": "weak anti-ulcerous effect"}, {"measurement": "effect on the blood coagulation process", "setting": "[11]", "value": "does not substantially affect"}]}
